Values joined by “and” are separate entries in the source; they are usually repeats but may differ in a detail not shown here. Equal values may be shown once. Read-outs that look alike come from different tables or passages of the source.
Columns and labels:
REC-1 = experiment: Anti-proliferation, intact cancer cell lines; format: cell-based; details: Homo sapiens, Rec1, 72 h
Procedure: (§1) The K562 (CML), KU812 (CML), MEG-01 (CML), MV4-11 (AML), MOLM14 (AML), U937 (AML), REC-1 (Human B-cell lymphoma cell), HL-60 (Human promyelocytic leukemia cells), MEC-1(CLL), CHL (Hamster lung cell), CHO (Hamster ovary cell) cell lines were obtained from American Type Culture Collection (Manassas, VA). All the cells were grown in a humidified incubator (Thermo, USA) at 37°C under 5% CO2. CHO cells were maintained in DMEM supplemented with 10% FBS, 1% penicillin/strepto-mycin. MV4-11 (AML) were grown in IMDM supplemented with 10% FBS, 1% penicillin/streptomycin. […] For suspension cells, cells were collected by spinning down at 800 rpm/min for 5 min before use.
(§2) A density of 1 × 10^4 to 2.5 × 10^4 cells/mL cells were mixed with various concentrations of compounds then 100 μL suspension was added to each well and incubated for 72 hours. Cell viability was determined using the CellTiter-Glo assay (Promega, USA) or CCK-8 assay (Beboy, China). Both assays were performed according to the manufacturer instructions. For CellTiter-Glo assay, luminescence was determined in a multi-label reader (Envision, PerkinElmer, USA). […] Data were normalized to control group (DMSO). GI50 were calculated using Prism 6.0 (GraphPad Software, San Diego, CA).

HL-60 = experiment: Anti-proliferation, intact cancer cell lines; format: cell-based; details: Homo sapiens, HL-60, 72 h
Procedure: as §1, §2

K562 = experiment: Anti-proliferation, intact cancer cell lines; format: cell-based; details: Homo sapiens; K562 (CML), 72 hours
Procedure: as §1, §2

KU812 = experiment: Anti-proliferation, intact cancer cell lines; format: cell-based; details: Homo sapiens; KU812 (CML), 72 hours
Procedure: as §1, §2

MEG-01 = experiment: Anti-proliferation, intact cancer cell lines; format: cell-based; details: Homo sapiens, MEG-01, 72 h
Procedure: as §1, §2

MEC-1 = experiment: Anti-proliferation, intact cancer cell lines; format: cell-based; details: Homo sapiens, MEC1, 72 h
Procedure: as §1, §2

U937 = experiment: Anti-proliferation, intact cancer cell lines; format: cell-based; details: Homo sapiens, U-937, 72 h
Procedure: as §1, §2

KIT(V559D) = molecular target: T1, KIT(V559D) (Homo sapiens, UniProt P10721, V559D); experiment: KinomeScan profiling; format: binding; details: 1 µM CHMFL-074; read-out: % Control
T1 construct: purchased DiscoveRx (KinomeScan service)

KIT(L576P) = molecular target: T2, KIT(L576P) (Homo sapiens, UniProt P10721, L576P); experiment: KinomeScan profiling; format: binding; details: 1 µM CHMFL-074; read-out: % Control
T2 construct: purchased DiscoveRx (KinomeScan service)

RET(M918T) = molecular target: T3, RET(M918T) (Homo sapiens, UniProt P07949, M918T); experiment: KinomeScan profiling; format: binding; details: 1 µM CHMFL-074; read-out: % Control
T3 construct: purchased DiscoveRx (KinomeScan service)

ABL1-nonphosphorylated = molecular target: T4, ABL1-nonphosphorylated (Homo sapiens, UniProt P00519); experiment: KinomeScan profiling; format: binding; details: 1 µM CHMFL-074; read-out: % Control
T4 construct: purchased DiscoveRx (KinomeScan service)

[1] = In vivo pharmacokinetics study; details: male, Sprague-Dawley, plasma, rat; for MRT inf: read-out: MRT(0-∞)
Procedure: The final concentration of the stock solution was 1 mg/mL for administration. […] Each time about 0.2 mL blood was collected through the jugular vein adding heparin for anticoagulation and kept on ice. Then plasma was separated by centrifugation at 8000 rpm for 6 minutes at 2–8°C. The obtained plasma was stored at −80°C before analysis. After finishing the test, all surviving animals will be transferred to the repository or euthanasia (CO2 asphyxiation).

DDR1 = molecular target: T5, DDR1 (Homo sapiens, UniProt Q08345); experiment: KinomeScan profiling; format: binding; details: 1 µM CHMFL-074; read-out: % Control
T5 construct: purchased DiscoveRx (KinomeScan service)

[2] = test system: BCR-ABL positive CML patient primary cells; experiment: Patient primary cell proliferation assay; format: cell-based; details: Homo sapiens, read-out: half effective inhibitory concentrations
Procedure: Mononuclear cells were isolated from CML patients or healthy donors by density-gradient centrifugation through Ficoll (Beijing Solarbio Science & Technology Co., Ltd., Beijing, China) at 400 g for 30 min, followed by two washes in 1× phosphate-buffered saline. Cells were then cultured in liquid culture (RPMI1640, supplemented with 20% FBS). All blood samples from CML patients and healthy donors were obtained through written consent under approval of the Chinese Academy of Sciences Institutional Review Board. The ethics committees approved the consent Procedure. CML primary patient cells were tested in liquid culture (RPMI1640, supplemented with 20% FBS) in the presence of different concentrations of CHMFL-074. The trypan blue exclusion assay was used for quantification of cells for seeding for before Cell-Titer Glo assays (Promega, USA). The Cell-Titer Glo assay was used for proliferation studies and carried out according to manufacturer's instructions. Cell viability is reported as percentages of control (untreated) cells.

ABL1 kinase = molecular target: T6, ABL1 kinase (Homo sapiens, UniProt P00519); experiment: Microscale thermophoresis (MST) binding Kd assay; details: binding Kd against ABL1 kinase
T6 construct: A construct encoding c-ABL residues 229–500 with a His tag; made in house; host or cells: SF9 insect cells (baculovirus, pFASTHTA)
Procedure: A construct encoding c-ABL residues 229–500 with a His tag was cloned into baculovirus expression vector pFASTHTA. The protein was expressed by infecting SF9 cells with high titer viral stocks for 48 hours. Cells were harvested and lysed in 30 mM Tris pH 7.4, 150 mM NaCl, 3 mM KCl, 10% glycerol, 1 mM PMSF, 2 mM TCEP, 1 mM ADP, 20 mM Imidazole. The supernatant was loaded to Ni-NTA Column (QIAGEN, 1018244). Then the proteins were gradient washed using the same buffer with 50 mM, 100 mM imidazole, then the ABL protein was eluted with Elution buffer (20 mM Tris, 500 mM NaCl, 1% glycerol, 1 mM TCEP, 0.5 mM ADP, 300 mM Imidazole, pH 8.0). The eluted protein was loaded on desalt column PD-10(GE) to change the buffer to 20 mM Tris, 500 mM NaCl, 1% glycerol, 2 mM TCEP, pH 8.0. The protein was concentrated to 1 mg/ml and aliquots were frozen and stored at −80 °C.
The Kd was measured using the Monolith NT.115 from Nanotemper Technologies. Proteins were fluorescently labeled according to the manufacturer's protocol. […] The sample was loaded into the NanoTemper glass capillaries and microthermophoresis carried out using 20% LED power and 30% MST Power. KD were calculated using the mass action equation via the NanoTemper software from duplicate reads of triplicate experiments.

T6 sequence (P00519 229-500): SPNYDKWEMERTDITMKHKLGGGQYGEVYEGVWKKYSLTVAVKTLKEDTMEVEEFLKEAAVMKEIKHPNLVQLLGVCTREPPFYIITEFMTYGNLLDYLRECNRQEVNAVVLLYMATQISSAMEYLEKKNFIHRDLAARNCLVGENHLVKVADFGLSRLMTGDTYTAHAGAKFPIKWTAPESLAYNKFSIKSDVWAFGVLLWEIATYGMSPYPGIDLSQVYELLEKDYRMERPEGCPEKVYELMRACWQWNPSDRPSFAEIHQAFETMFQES
T5 sequence (Q08345 19-913): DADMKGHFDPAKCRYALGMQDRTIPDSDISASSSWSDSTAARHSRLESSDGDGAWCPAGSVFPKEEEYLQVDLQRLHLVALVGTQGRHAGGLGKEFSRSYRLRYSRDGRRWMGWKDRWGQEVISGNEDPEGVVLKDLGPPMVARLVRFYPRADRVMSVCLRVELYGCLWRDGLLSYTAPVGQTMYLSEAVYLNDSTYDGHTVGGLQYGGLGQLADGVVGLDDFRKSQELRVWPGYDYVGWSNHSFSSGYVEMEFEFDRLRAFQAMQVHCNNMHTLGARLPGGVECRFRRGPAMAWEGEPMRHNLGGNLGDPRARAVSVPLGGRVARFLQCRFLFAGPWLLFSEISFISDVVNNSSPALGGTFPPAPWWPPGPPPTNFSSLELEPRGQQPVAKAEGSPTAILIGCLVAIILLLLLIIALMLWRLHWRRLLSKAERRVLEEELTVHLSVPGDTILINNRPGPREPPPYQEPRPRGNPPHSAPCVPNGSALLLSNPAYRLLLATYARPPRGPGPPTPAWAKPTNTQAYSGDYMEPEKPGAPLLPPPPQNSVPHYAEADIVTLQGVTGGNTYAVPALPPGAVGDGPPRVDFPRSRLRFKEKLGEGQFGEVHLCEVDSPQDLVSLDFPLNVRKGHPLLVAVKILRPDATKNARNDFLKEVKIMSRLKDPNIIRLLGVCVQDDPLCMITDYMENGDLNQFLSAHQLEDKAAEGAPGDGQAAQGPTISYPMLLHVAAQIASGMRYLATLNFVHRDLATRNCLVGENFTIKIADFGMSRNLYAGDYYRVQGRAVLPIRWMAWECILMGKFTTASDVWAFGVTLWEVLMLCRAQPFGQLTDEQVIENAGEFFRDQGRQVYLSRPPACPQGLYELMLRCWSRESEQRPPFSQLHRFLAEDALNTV
T3 sequence (P07949 29-1114 M918T): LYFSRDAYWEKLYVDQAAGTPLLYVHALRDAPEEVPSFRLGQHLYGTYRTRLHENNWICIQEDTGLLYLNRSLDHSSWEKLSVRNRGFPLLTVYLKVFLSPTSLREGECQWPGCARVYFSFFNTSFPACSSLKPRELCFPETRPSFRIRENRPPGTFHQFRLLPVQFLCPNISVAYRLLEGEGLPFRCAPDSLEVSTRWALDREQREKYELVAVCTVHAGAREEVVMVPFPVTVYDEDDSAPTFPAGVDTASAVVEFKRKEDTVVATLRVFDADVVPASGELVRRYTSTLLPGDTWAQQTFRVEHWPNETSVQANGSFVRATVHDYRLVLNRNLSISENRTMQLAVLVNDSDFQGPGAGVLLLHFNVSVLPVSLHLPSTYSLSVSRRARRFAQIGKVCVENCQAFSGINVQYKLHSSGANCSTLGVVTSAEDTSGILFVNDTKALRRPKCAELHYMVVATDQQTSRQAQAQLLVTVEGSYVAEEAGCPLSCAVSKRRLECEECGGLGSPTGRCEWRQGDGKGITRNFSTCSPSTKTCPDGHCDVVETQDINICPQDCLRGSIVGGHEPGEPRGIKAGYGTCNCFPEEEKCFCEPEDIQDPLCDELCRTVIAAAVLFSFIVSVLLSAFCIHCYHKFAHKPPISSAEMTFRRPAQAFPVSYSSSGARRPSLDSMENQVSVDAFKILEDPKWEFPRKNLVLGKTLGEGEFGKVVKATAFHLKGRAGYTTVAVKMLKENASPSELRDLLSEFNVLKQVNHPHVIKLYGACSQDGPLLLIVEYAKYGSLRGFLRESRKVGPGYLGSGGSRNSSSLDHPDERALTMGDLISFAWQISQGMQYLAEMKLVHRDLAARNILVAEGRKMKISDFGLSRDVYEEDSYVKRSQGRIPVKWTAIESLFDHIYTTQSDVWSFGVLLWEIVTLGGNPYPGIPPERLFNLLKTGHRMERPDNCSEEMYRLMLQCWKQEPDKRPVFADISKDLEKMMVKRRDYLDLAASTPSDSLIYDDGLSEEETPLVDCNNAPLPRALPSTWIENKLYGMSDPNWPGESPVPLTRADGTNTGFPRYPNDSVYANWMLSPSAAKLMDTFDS
T4 sequence (P00519 whole entry): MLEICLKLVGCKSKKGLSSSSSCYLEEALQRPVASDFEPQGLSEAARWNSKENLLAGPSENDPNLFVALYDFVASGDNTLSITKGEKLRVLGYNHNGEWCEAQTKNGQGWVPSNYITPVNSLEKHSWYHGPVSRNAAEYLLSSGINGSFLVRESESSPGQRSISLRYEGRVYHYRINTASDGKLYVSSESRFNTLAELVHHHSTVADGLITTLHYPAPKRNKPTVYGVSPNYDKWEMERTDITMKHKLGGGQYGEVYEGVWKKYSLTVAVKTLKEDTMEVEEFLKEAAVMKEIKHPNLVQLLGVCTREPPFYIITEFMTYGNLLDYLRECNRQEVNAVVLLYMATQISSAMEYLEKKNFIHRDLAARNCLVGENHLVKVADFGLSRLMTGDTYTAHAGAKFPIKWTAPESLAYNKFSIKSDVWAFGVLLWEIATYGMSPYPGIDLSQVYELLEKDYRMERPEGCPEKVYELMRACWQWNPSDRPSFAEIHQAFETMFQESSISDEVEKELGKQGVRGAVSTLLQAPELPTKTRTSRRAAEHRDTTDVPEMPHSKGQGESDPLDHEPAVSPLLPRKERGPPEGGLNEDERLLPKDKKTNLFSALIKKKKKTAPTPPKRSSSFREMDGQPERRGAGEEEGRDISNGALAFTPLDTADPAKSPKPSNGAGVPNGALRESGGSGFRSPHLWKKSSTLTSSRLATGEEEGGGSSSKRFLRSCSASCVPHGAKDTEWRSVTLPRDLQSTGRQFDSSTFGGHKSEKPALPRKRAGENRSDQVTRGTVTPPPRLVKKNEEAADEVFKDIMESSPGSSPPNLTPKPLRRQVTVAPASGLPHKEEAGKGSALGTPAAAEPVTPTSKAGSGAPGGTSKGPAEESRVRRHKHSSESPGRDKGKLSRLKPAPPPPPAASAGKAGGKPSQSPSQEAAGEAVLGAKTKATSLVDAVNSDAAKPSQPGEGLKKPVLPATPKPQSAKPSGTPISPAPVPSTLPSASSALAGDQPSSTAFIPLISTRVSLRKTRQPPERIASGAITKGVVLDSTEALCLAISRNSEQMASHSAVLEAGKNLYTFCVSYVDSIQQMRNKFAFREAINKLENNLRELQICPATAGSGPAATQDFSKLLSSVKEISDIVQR
T2 sequence (P10721 26-976 L576P): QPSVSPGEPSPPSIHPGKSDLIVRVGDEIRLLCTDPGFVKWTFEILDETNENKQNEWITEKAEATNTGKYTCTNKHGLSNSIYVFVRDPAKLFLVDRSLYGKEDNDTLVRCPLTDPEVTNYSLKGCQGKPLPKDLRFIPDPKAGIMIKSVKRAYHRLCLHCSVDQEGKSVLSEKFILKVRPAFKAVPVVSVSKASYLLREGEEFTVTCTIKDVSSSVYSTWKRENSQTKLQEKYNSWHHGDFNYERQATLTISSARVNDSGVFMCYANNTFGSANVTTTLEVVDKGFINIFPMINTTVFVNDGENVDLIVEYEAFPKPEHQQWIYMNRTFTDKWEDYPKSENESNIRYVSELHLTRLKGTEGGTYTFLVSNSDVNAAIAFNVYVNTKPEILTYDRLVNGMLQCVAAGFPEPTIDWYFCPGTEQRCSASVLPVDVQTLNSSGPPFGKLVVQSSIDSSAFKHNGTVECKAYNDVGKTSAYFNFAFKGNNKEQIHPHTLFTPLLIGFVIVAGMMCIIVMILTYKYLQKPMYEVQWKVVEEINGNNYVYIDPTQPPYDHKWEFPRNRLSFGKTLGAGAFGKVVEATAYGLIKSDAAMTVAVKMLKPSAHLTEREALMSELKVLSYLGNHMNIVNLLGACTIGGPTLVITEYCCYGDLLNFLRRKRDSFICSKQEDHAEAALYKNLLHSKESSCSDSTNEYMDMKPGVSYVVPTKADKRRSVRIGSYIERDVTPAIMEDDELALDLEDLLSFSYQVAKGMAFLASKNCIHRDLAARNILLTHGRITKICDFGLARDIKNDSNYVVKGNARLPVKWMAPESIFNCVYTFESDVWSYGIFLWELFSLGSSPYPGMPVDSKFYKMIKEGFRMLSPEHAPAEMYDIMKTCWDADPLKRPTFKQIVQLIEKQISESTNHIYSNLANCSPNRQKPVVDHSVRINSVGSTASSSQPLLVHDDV
T1 sequence (P10721 26-976 V559D): as the sequence (P10721 26-976 L576P) above, with V534D, P551L counted along it

Cc1ccc(NC(=O)c2ccc(CN3CCN(C)CC3)c(C(F)(F)F)c2)cc1OC1CCN(C(=O)c2cccnc2)CC1 [CHMFL-074]
GI50 (REC-1): > 10000 nM
GI50 (HL-60): > 10000 nM
GI50 (K562): 56 nM
GI50 (KU812): 57 nM
GI50 (MEG-01): 18 nM
GI50 (MEC-1): > 10000 nM
GI50 (U937): > 10000 nM
remaining binding at 1 µM (KIT(V559D)): 0.45%
remaining binding at 1 µM (KIT(L576P)): 1%
remaining binding at 1 µM (RET(M918T)): 0.15%
remaining binding at 1 µM (ABL1-nonphosphorylated): 0.25%
AUC(0-inf) ([1]; IV 1mg/kg, mean): 340 ng·h/mL
AUC(0-t) ([1]; IV 1mg/kg, mean): 337 ng·h/mL
Cmax ([1]; IV 1mg/kg, mean): 739 ng/mL
Tmax ([1]; IV 1mg/kg, mean): 0.02 h
half-life ([1]; IV 1mg/kg, mean): 1.23 h
clearance ([1]; IV 1mg/kg, mean, read-out: CLz (converted)): 49.3 mL/min/kg
MRT inf ([1]; IV 1mg/kg, mean): 1.29 h
Vd ([1]; IV 1mg/kg, mean, read-out: Vz): 5.25 L/kg
AUC(0-inf) ([1]; PO 10 mg/kg, mean): 1460 ng·h/mL
AUC(0-t) ([1]; PO 10 mg/kg, mean): 1130 ng·h/mL
Cmax ([1]; PO 10 mg/kg, mean): 190 ng/mL
Tmax ([1]; PO 10 mg/kg, mean): 4 h
half-life ([1]; PO 10 mg/kg, mean): 3.38 h
MRT inf ([1]; PO 10 mg/kg, mean): 6.58 h
bioavailability ([1]; PO 10 mg/kg, read-out: F (bioavailability)): 42.9%
remaining binding at 1 µM (DDR1): < 1%
IC50 [2]: 300 to 1000 nM
Kd (ABL1 kinase): 24 nM and 24.2 nM

— publication PMC5216742, “Discovery and characterization of a novel potent type II native and mutant BCR-ABL inhibitor (CHMFL-074) for Chronic Myeloid Leukemia (CML)” (Oncotarget, 2016)
